From ChEMBL document CHEMBL1143329, “Discovery and SAR of benzyl phenyl ethers as inhibitors of bacterial phenylalanyl-tRNA synthetase” (Bioorg Med Chem Lett, 2009)
Values after ≈ are worked out from the molar mass of the structure shown.

Columns and labels:
[1] = Inhibition of Haemophilus influenzae phenylalanyl-tRNA synthetase
[2] = Inhibition of Streptococcus pneumoniae phenylalanyl-tRNA synthetase
Haemophilus influenzae [3] = assay: Antibacterial activity against AcrA pump deficient Haemophilus influenzae; assay type: functional
Haemophilus influenzae [4] = assay: Antibacterial activity against wild type Haemophilus influenzae; assay type: functional
Streptococcus pneumoniae = assay: Antibacterial activity against wild type Streptococcus pneumoniae; assay type: functional
[5] = Apparent intrinsic clearance in human liver microsomes; assay type: ADME, Microsome
[6] = Membrane permeability by PAMPA; assay type: ADME; conditions: read-out: Activity
[7] = target: Voltage-gated inwardly rectifying potassium channel KCNH2 (Homo sapiens, UniProt Q12809); assay: Displacement of [3H]dofetilide from human ERG channel
Voltage-gated inwardly rectifying potassium channel KCNH2, sequence (Q12809 whole entry): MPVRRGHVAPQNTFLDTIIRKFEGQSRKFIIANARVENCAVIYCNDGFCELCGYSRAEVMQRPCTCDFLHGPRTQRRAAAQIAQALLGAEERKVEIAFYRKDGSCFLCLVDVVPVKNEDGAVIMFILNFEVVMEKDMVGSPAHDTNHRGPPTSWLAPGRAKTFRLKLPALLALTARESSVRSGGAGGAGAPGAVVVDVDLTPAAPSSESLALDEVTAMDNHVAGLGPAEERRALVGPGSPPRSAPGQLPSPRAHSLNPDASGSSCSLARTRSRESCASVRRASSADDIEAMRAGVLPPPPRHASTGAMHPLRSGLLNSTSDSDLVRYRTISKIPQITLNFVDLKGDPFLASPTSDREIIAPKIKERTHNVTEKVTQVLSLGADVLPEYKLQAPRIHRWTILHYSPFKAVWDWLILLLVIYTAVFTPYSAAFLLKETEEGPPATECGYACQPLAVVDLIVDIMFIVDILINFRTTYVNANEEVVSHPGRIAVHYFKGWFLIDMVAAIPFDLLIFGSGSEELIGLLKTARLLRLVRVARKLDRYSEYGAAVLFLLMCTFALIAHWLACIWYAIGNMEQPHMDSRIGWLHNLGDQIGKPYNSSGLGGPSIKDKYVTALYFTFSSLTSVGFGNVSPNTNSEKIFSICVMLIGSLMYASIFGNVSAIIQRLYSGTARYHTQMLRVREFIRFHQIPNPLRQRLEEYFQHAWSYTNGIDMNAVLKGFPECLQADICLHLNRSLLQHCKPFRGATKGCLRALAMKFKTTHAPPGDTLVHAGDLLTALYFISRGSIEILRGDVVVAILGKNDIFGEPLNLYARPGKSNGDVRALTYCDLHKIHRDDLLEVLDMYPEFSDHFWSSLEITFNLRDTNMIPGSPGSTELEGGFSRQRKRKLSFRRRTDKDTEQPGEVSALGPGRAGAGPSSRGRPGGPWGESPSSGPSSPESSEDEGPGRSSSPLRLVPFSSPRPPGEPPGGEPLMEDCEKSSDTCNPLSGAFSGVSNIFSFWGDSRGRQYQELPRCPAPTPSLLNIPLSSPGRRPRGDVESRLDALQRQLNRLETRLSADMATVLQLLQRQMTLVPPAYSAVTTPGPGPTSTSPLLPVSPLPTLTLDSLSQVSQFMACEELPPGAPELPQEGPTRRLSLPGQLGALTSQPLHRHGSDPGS

Cytochrome P450 1A2 = target: T1, Cytochrome P450 1A2 (Homo sapiens, UniProt P05177); assay: Inhibition of human CYP1A2 at 3 uM; assay type: ADME; conditions: 3 µM
T1 sequence (P05177 whole entry): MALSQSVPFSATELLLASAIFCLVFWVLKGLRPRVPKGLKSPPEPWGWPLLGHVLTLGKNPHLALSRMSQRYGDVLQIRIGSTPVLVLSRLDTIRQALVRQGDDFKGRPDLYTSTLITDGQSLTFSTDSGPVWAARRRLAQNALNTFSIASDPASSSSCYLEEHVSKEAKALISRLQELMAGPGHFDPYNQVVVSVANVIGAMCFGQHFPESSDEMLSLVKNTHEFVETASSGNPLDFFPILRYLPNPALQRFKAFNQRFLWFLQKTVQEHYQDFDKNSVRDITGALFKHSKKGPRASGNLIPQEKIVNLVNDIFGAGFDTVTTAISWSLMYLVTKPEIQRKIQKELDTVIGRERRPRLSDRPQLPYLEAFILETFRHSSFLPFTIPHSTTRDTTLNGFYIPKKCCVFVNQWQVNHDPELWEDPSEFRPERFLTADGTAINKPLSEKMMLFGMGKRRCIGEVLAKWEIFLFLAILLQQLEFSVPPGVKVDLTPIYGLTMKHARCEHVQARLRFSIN

Cytochrome P450 2C9 = Cytochrome P450 2C9 (Homo sapiens, UniProt P11712); assay: Inhibition of human CYP2C9 at 3 uM; assay type: ADME
Cytochrome P450 2C9, sequence (P11712 whole entry): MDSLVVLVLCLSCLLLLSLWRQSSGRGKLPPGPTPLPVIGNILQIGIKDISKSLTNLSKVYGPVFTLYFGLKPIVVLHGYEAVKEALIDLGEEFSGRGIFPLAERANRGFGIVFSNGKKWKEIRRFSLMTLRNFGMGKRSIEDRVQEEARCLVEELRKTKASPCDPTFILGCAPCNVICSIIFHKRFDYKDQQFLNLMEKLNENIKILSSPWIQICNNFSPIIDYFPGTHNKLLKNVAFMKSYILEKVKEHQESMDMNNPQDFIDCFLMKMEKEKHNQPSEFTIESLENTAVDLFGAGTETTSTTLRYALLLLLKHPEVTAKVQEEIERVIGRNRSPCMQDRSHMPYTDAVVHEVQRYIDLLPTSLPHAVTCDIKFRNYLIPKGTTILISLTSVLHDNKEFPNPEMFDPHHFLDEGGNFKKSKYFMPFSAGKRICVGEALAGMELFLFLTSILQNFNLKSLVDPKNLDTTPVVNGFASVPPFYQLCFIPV

Cytochrome P450 2D6 = Cytochrome P450 2D6 (Homo sapiens, UniProt P10635); assay: Inhibition of human CYP2D6 at 3 uM; assay type: ADME
Cytochrome P450 2D6, sequence (P10635 whole entry): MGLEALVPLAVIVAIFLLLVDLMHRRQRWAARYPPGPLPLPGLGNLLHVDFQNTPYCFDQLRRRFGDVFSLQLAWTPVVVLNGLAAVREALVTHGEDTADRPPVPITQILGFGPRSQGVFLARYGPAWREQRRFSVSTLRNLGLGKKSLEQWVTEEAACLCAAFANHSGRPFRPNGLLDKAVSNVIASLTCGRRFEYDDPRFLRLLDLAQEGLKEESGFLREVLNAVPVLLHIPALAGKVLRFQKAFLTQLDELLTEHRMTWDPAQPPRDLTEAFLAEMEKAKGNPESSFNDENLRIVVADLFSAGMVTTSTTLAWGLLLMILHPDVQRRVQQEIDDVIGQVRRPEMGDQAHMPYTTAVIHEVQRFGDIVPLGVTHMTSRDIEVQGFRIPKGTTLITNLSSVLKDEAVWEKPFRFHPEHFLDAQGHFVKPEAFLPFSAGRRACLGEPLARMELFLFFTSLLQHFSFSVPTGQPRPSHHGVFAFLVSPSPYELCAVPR

Cytochrome P450 3A4 = Cytochrome P450 3A4 (Homo sapiens, UniProt P08684); assay: Inhibition of human CYP3A4 at 3 uM; assay type: ADME
Cytochrome P450 3A4, sequence (P08684 whole entry): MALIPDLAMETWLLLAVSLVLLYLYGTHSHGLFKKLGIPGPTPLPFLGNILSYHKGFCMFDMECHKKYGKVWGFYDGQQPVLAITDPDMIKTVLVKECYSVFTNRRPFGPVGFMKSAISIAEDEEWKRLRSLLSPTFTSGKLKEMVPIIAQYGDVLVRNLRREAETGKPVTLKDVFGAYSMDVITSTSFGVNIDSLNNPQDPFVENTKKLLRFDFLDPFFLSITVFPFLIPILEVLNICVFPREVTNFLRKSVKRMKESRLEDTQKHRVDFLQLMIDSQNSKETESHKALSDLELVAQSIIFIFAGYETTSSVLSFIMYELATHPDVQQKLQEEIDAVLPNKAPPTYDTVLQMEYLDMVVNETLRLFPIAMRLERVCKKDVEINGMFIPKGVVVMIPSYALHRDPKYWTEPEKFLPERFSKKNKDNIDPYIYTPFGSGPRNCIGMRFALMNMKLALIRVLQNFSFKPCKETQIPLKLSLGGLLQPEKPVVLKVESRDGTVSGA

Row | SMILES | IC50 [1] [µM] | IC50 [2] [µM] | also measured
1 | CCc1nnc(-c2ccc(OCc3cccc(Cl)c3)c(Cl)c2)o1 | 11 | 76 | –
2 | Cc1nnc(-c2ccc(OCc3cccc(Cl)c3)c(Cl)c2)o1 | 6.6 | 95 | –
3 | COC(=O)c1ccc(OCc2cccc(Cl)c2)cc1 | 3.1 | 12 | –
4 | COC(=O)c1ccc(CNc2cccc(Cl)c2)cc1 | 57 | > 64 | –
5 | CC(CO)NC(=O)c1ccc(OCc2cccc(Cl)c2)c(Cl)c1 (stereo unspecified) | 29 | 483 | MIC (Haemophilus influenzae [3]): 4 µg/mL (≈ 11.3 µM); MIC (Haemophilus influenzae [4]): > 32 µg/mL; MIC (Streptococcus pneumoniae): 32 µg/mL (≈ 90.3 µM)
6 | COC(=O)c1ccc(NC(=O)c2cccc(Cl)c2)c(C)c1 | > 64 | > 64 | –
7 | COC(=O)c1ccc(C(=O)Nc2cccc(Cl)c2)cc1 | > 64 | > 64 | –
8 | COC(=O)c1ccc(/C=C/c2cccc(Cl)c2)c(C)c1 | 0.13 | 0.2 | –
9 | NC(=O)c1nnc(-c2cc(Cl)c(OCc3cccc(Cl)c3)cn2)o1 | 2.7 | 60 | –
10 | NC(=O)Cc1nnc(-c2ccc(OCc3cccc(Cl)c3)c(Cl)c2)o1 | 1.7 | 126 | –
11 | CC(CO)NC(=O)c1ccc(OCc2cc(Cl)ccn2)c(Cl)c1 (stereo unspecified) | 4.6 | 43 | MIC (Haemophilus influenzae [3]): 2 µg/mL (≈ 5.63 µM); MIC (Haemophilus influenzae [4]): 32 µg/mL (≈ 90.1 µM); MIC (Streptococcus pneumoniae): 32 µg/mL (≈ 90.1 µM)
12 | O=C(O)Cc1nnc(-c2ccc(OCc3cccc(Cl)c3)c(Cl)c2)o1 | 11 | 110 | –
13 | NC(=O)c1nnc(-c2ccc(OCc3cccc(Cl)c3)c(Cl)c2)o1 | 2.6 | 81 | –
14 | COC(=O)c1ccc(OCc2cccc(Cl)c2)c(Cl)c1 | 0.017 | 0.091 | –
15 | CN1CCN(C(=O)c2ccc(OCc3cccc(Cl)c3)c(Cl)c2)CC1 | 0.15 | 2.3 | –
16 | COC(=O)c1ccc(NCc2cccc(Cl)c2)c(C)c1 | 3.5 | 6.1 | –
17 | COC(=O)c1ccc(N(C)Cc2cccc(Cl)c2)c(C)c1 | 0.17 | 3.5 | –
18 | Cc1cc(C(=O)N2CCN(C)C(=O)C2)ccc1NS(=O)(=O)c1cccc(Cl)c1 | > 64 | > 64 | –
19 | Cc1cc(C(=O)N2CCN(C(=O)C3CCCO3)CC2)ccc1OCc1cccc(Cl)c1 (stereo unspecified) | 0.067 | 3.7 | CLint scaled [5]: 55.1 mL/min/kg; Papp [6]: 10.8 ×10⁻⁶ cm/s; Ki [7]: 0.0239 µM; Activity (Cytochrome P450 1A2): Not Active; Activity (Cytochrome P450 2C9): Not Active; Activity (Cytochrome P450 2D6): Not Active; Activity (Cytochrome P450 3A4): Not Active
20 | Cc1cc(C(=O)N2CCN(C(=O)C3CCCO3)CC2)ccc1CC(O)c1cccc(Cl)c1 (stereo unspecified) | 0.28 | 11 | –
21 | Cc1cc(C(=O)N2CCC(C(N)=O)CC2)ccc1OCc1cccc(Cl)c1 | 0.15 | – | –
22 | Cc1cc(C(=O)N2CCC(C(N)=O)CC2)ccc1CCc1cccc(Cl)c1 | 0.36 | 46 | –
23 | Cn1c(-c2cccc(Cl)c2)nc(=O)c2cc(C(=O)N3CCC(C(N)=O)CC3)ccc21 | > 64 | > 64 | –
24 | CCN(CC)CCN(C)S(=O)(=O)c1ccc(OCc2cccc(Cl)c2)c(Cl)c1 | 1.9 | 79 | –
25 | CC(=O)Nc1nnc(-c2ccc(OCc3cccc(Cl)c3)c(Cl)c2)o1 | 1.3 | 28 | –
26 | Cc1ccc(C(=O)N2CCN(S(=O)(=O)c3ccc(OCc4cccc(Cl)c4)c(Cl)c3)CC2)cc1 | 1.9 | 12 | –
27 | COC(=O)c1ccc(OCc2cccc(Cl)c2)c(C)c1 | 0.034 | 0.097 | –

Row | SMILES | IC50 [1] [µM] | IC50 [2] [µM] | also measured
28 | COC(=O)c1ccc(OCc2cc(F)cc(F)c2)c(Cl)c1 | 0.03 | 0.16 | –
29 | COC(=O)c1ccc(OCc2ccc(F)c(F)c2)c(Cl)c1 | 0.0087 | 0.12 | –
30 | CN1CCN(C(=O)c2ccc(COc3cccc(Cl)c3)c(Cl)c2)CC1 | 0.84 | – | –
31 | Cc1cc(C(=O)N2CCN(C)CC2)ccc1C(CO)c1cccc(Cl)c1 (stereo unspecified) | > 64 | > 64 | –
32 | CN1CCN(C(=O)c2ccc(OCc3cccc(Cl)c3)c(Cl)c2)CC1=O | 0.038 | 1.3 | CLint scaled [5]: < 7.6 mL/min/kg; Papp [6]: 16.4 ×10⁻⁶ cm/s; Ki [7]: 0.0372 µM; Activity (Cytochrome P450 1A2): Not Active; Activity (Cytochrome P450 2C9): Not Active; Activity (Cytochrome P450 2D6): Not Active; Activity (Cytochrome P450 3A4): Not Active
33 | Nc1nnc(-c2cc(Cl)c(OCc3cccc(Cl)c3)cn2)o1 | – | 50 | –
34 | CN1CCN(C(=O)c2ccc(CS(=O)(=O)c3cccc(Cl)c3)c(Cl)c2)CC1=O | > 64 | > 64 | –
35 | O=C(NCCCCO)c1ccc(OCc2cc(Cl)ccn2)c(Cl)c1 | 16 | 34 | –
36 | O=C(NCCN1CCOCC1)c1ccc(OCc2cccc(Cl)c2)c(Cl)c1 | 14 | 438 | –
37 | OCCc1nnc(-c2ccc(OCc3cccc(Cl)c3)c(Cl)c2)o1 | 3.1 | 87 | –
38 | O=C(NCCN1CCOCC1)c1cc(Cl)c(OCc2cccc(Cl)c2)cn1 | 8 | 65 | MIC (Haemophilus influenzae [3]): 1 µg/mL (≈ 2.44 µM); MIC (Haemophilus influenzae [4]): 32 µg/mL (≈ 78 µM); MIC (Streptococcus pneumoniae): 8 µg/mL (≈ 19.5 µM)
39 | O=C(NC1CCC(O)CC1)c1cc(Cl)c(OCc2cccc(Cl)c2)cn1 (stereo unspecified) | 1.5 | 28 | –
40 | COC(=O)c1ccc([C@H](O)[C@@H](O)c2cccc(Cl)c2)c(C)c1 | 6.5 | > 64 | –
41 | COC(=O)c1ccc([C@@H](O)[C@H](O)c2cccc(Cl)c2)c(C)c1 | > 64 | > 64 | –
42 | Clc1cccc(COc2ccc(-c3nnco3)cc2Cl)c1 | 11 | 156 | –
43 | CSc1nnc(-c2ccc(OCc3cccc(Cl)c3)c(Cl)c2)o1 | 5.5 | 81 | –
44 | C[S+]([O-])c1nnc(-c2ccc(OCc3cccc(Cl)c3)c(Cl)c2)o1 (stereo unspecified) | 1.5 | 36 | –
45 | O=C(NCC1CC1)c1ccc(OCc2cccc(Cl)c2)c(Cl)c1 | 57 | 393 | –
46 | O=C(NCC1CC1)c1cc(Cl)c(OCc2cccc(Cl)c2)cn1 | 30 | 50 | –
47 | COC(=O)c1ccc(CN(C)c2cccc(Cl)c2)cc1 | > 64 | > 64 | –
48 | CN1CCN(C(=O)c2ccc(S(=O)(=O)Nc3cccc(Cl)c3)c(Cl)c2)CC1=O | > 64 | > 64 | –
49 | Nc1nnc(-c2ccc(OCc3cccc(Cl)c3)c(Cl)c2)o1 | 2.3 | 42 | –
50 | CCn1nccc1NC(=O)c1cc(Cl)c(OCc2cccc(Cl)c2)cn1 | 24 | 34 | –
51 | CS(=O)(=O)c1nnc(-c2ccc(OCc3cccc(Cl)c3)c(Cl)c2)o1 | 2.1 | 53 | MIC (Haemophilus influenzae [3]): 1 µg/mL (≈ 2.5 µM); MIC (Haemophilus influenzae [4]): 32 µg/mL (≈ 80.1 µM); MIC (Streptococcus pneumoniae): > 32 µg/mL
52 | CN1CCN(C(=O)c2ccc(C[S+]([O-])c3cccc(Cl)c3)c(Cl)c2)CC1=O (stereo unspecified) | 2.4 | 23 | –
53 | O=C(NCCCCO)c1ccc(OCc2cccc(Cl)c2)c(Cl)c1 | 22 | 254 | CLint scaled [5]: < 7.6 mL/min/kg; Papp [6]: 1.22 ×10⁻⁶ cm/s; Ki [7]: > 0.1 µM; Activity (Cytochrome P450 1A2): Not Active; Activity (Cytochrome P450 2C9): Not Active; Activity (Cytochrome P450 2D6): Not Active; Activity (Cytochrome P450 3A4): Not Active
